Sander's compilation of Henry's law constants (doi:10.1002/etc.5620180906)

Assay: Henry solubility constant Hcp at 298.15 K (mol/(m3 Pa))
Details: reference: Bamford et al. (1999a)

Question: For c1ccc2cc3ccccc3cc2c1 [anthracene], which “Henry solubility constant Hcp” value is on record?
Answer: 0.18

Question: Which “Henry solubility constant Hcp” value does the source give for c1ccc2c(c1)-c1cccc3cccc-2c13 [benzo[jk]fluorene] here?
Answer: 0.51

Question: For c1ccc2c(c1)ccc1c3ccccc3ccc21 [chrysene], which “Henry solubility constant Hcp” value is on record?
Answer: 1.9

Question: Which “Henry solubility constant Hcp” value does the source give for c1ccc2c(c1)ccc1ccccc12 [phenanthrene] here?
Answer: 0.23

Question: Which “Henry solubility constant Hcp” value does the source give for c1ccc2c(c1)Cc1ccccc1-2 [2,3-benzindene] here?
Answer: 0.1

Question: For Cc1cccc2ccccc12 [1-methylnaphthalene], which “Henry solubility constant Hcp” value is on record?
Answer: 0.021

Question: For Cc1cccc2c1ccc1ccccc12 [1-methylphenanthrene], which “Henry solubility constant Hcp” value is on record?
Answer: 0.2

Question: Which “Henry solubility constant Hcp” value does the source give for Cc1ccc2ccccc2c1 [2-methylnaphthalene] here?
Answer: 0.019

Question: With c1ccc2c(c1)Cc1c-2ccc2ccccc12 [benzo[a]fluorene] as the compound, how does the “Henry solubility constant Hcp” value read?
Answer: 0.37

Question: For C1=Cc2cccc3cccc1c23 [acenaphthylene], which “Henry solubility constant Hcp” value is on record?
Answer: 0.079

Question: Which “Henry solubility constant Hcp” value does the source give for c1cc2c3c(cccc3c1)CC2 [acenaphthene] here?
Answer: 0.054
